≈ marks a conversion by molar mass, not a printed value. Entries after “also recorded” stand apart in the source; their conditions may differ.
Legend:
Type in all cases: physicochemical
[1] = Thermal stability test (XRPD and HPLC after storage); conditions: 40° C./75% RH, 4 weeks, brown vial in aluminum pouch
Description: 50 mg of crystalline form Y and 50 mg of crystalline form S obtained from the Examples were put into brown vials, respectively, and secondary packaging was carried out in an aluminum pouch, followed by storing at 40±2° C. and 75±5% RH. After 4 weeks, each sample was taken out, X-ray powder diffraction (XRPD) analysis was performed to evaluate the stability of the crystalline form, and high performance liquid chromatography (HPLC) analysis was performed to evaluate the generation and increase of related substances.
The results of the X-ray powder diffraction (XRPD) analysis and high performance liquid chromatography (HPLC) analysis are shown in Table 5 and 6, respectively.

[2] = Hygroscopicity test (DVS); conditions: for Hygroscopicity (DVS analysis, in words): 25° C., relative humidity 5-95%, EP standard 25° C., 80% RH; for Moisture Absorption at 25° C./80% RH: DVS, isothermal 25° C.
Description: Using a DVS (dynamic vapor absorption, VTI SGA-100, TA Instruments) which is a vapor adsorption and desorption device, crystalline forms Y and S of lifitegrast obtained from the Examples and crystalline form A of lifitegrast obtained from the Comparative Example were subjected to moisture adsorption and desorption once repeatedly, respectively, at an isothermal condition of 25° C. and in a relative humidity range of 5-95% with an interval of 5% RH.

[3] = Solubility test in water; conditions: for Solubility compared with that of crystalline form A: room temperature, relative to crystalline form A; for Solubility in water: stirred at room temperature
Description: After crystalline forms Y and S of lifitegrast obtained from the Examples and crystalline form A of lifitegrast obtained from the Comparative Example were dissolved in water, respectively, they were sufficiently stirred at room temperature to perform a solubility test.

Structure (SMILES)	Generation and increase of related substances (HPLC analysis) [1]	Stability of the crystalline form (XRPD analysis) [1]	Hygroscopicity (DVS analysis, in words) [2]	Moisture Absorption at 25° C./80% RH [2]	Solubility compared with that of crystalline form A [3]	Solubility in water [3]
CS(=O)(=O)c1cccc(C[C@H](NC(=O)c2c(Cl)cc3c(c2Cl)CCN(C(=O)c2ccc4ccoc4c2)C3)C(=O)O)c1 [Crystalline Form Y, lifitegrast]	no related substance was observed; also recorded: No generation of Related	did not change in appearance and polymorphism; also recorded: Retention of Crystalline Form	low hygroscopicity	2.9%	twice or more	67 µg/mL (≈ 109 µM)
CS(=O)(=O)c1cccc(C[C@H](NC(=O)c2c(Cl)cc3c(c2Cl)CCN(C(=O)c2ccc4ccoc4c2)C3)C(=O)O)c1 [Crystalline Form S, lifitegrast]	no related substance was observed; also recorded: No generation of Related	did not change in appearance and polymorphism; also recorded: Retention of Crystalline Form	low hygroscopicity; also recorded: lower hygroscopicity than the crystalline form A	0.1%	twice or more	64 µg/mL (≈ 104 µM)
CS(=O)(=O)c1cccc(C[C@H](NC(=O)c2c(Cl)cc3c(c2Cl)CCN(C(=O)c2ccc4ccoc4c2)C3)C(=O)O)c1 [Crystalline Form A, lifitegrast]	–	–	–	1.0%	–	32 µg/mL (≈ 52 µM)

From patent publication US12492192B2, “Crystalline form of lifitegrast, and pharmaceutical composition comprising the same” (YS LIFE SCIENCE CO. LTD., priority 2020, dated 2025)
